Results: patent US10067142B2, “Method for diagnosing, treating, or preventing mood disorder” (priority 2014, dated 2018)
Like-named read-outs stand apart in the source and are kept apart here.

How the values were obtained:
Bcl-2 = conditions: Literatures 13 through 16, cited from earlier work
[1] = tested on: SITH-1/Adv nasal administration mice; assay: Tail suspension test of SSRI-treated SITH-1/Adv nasal administration mice; format: in vivo; conditions: 80 mg/L Fluoxetine solution as drinking water from 2 weeks before nasal SITH-1/Adv; test 7 days after nasal administration, 10 minutes
Description: 8-week-old C57BL/6NCrSlc mice were raised at a room temperature of 24±1° C. and with lights on for 12 hours and off for 12 hours. After each of the mice was anesthetized with use of isoflurane, SITH-1/Adv or empty/Adv in an amount equivalent to 2.5×10^7 ifu was dropped onto the nasal cavity, and was then sucked along with breathing. Then, the mice were returned to raising cages.
7 days after the nasal administration of SITH-1/Adv or empty/Adv, a tail suspension test was carried out for 10 minutes. A period of immobility time was measured with use of TailSuspScanTopScan (CleverSys, Inc.). The tail suspension test was carried out by suspending each mouse by taping the tail 1 cm from the end. […] In the experiment, 30 mice were used in each group.
Then, it was studied whether or not an SSRI (selective serotonin reuptake inhibitor), which is an antidepressant, would restrict an increase in immobility time, the increase being caused by the nasal administration of the SITH-1/Adv. 80 mg/L of Fluoxetine solution as drinking water was given to 6-week-old mice (see Literature 18), and then the mice were raised for 2 weeks. Then, SITH-1/Adv was nasally administered. 7 days after the nasal administration, a tail suspension test was carried out for 10 minutes. […] Statistical significance (* indicates P<0.05, ** indicates P<0.01, and *** indicates P<0.001) was calculated by use of the Mann-Whitney U-test.

HHV-6 HST strain = assay: SITH-1 expression in HHV-6-infected U373 cells pre-reacted with heparin or anti-heparan sulfate peptide; format: cell-based; conditions: cells reacted with 10 unit/mL Novo-Heparin at 4° C. for 1 hour before infection; MOI 3; 48 hours
Description: U373 astrocytoma cells were removed with use of trypsin-EDTA, and then a medium (10% FBS-containing DMEM) was added, so that the resultant cells were at 1×10^5 cell/mL. Then, the U373 cells were reacted with 10 unit/mL of Novo-Heparin (Mochida Pharmaceutical Co., Ltd.) or 0.1 mM of anti-3-OS Heparan sulfate (HS) peptide trifluoroacetate salt (Sigma-Aldrich) at 4° C. for 1 hour. The U373 cells were also reacted only with a medium as a control at 4° C. for 1 hour. The resultant cells were washed 3 times with a medium. Then, the U373 cells thus washed were infected with a HHV-6 HST strain virus fluid (2.9×10^6 ffu/ml) at a MOI of 3 by centrifugation. Then, the infected cells were cultured at 37° C. for 48 hours in a CO2 incubator.
From the resultant infected cells, RNA was purified by use of RNeasy Mini Kit (Qiagen) in accordance with the standard protocol. Then, cDNA was synthesized by use of a PrimeScript RT Reagent Kit (Takara Bio). Finally, expression levels of SITH-1 and GAPDH mRNA were measured by a method similar to that used in the above (3.1).

Compound	Bcl-2 expression in the brain (Bcl-2)	further results
N[C@@H]1C[C@H]1c1ccccc1 (racemic) [tranylcypromine]	promote Bcl-2 expression in the brain	–
CNCCC(Oc1ccc(C(F)(F)F)cc1)c1ccccc1 (stereo not shown) [Fluoxetine]	promotes Bcl-2 expression	immobility time increases in tail suspension test [1]: restricted; Bcl-2 expression in the brain (Bcl-2; listed as fluoxetine): promote Bcl-2 expression in the brain
CN(C)CCC=C1c2ccccc2CCc2ccccc21 [amitriptyline]	promote Bcl-2 expression in the brain	–
CNCCCN1c2ccccc2CCc2ccccc21 [desipramine]	promote Bcl-2 expression in the brain	–
CN(C)CCCN1c2ccccc2CCc2ccccc21 [imipramine]	promote Bcl-2 expression in the brain	–
CCOc1ccccc1OC(c1ccccc1)C1CNCCO1 (stereo not shown) [reboxetine]	promote Bcl-2 expression in the brain	–
COc1ccc(C(CN(C)C)C2(O)CCCCC2)cc1 (stereo not shown) [venlafaxine]	promote Bcl-2 expression in the brain	–
heparin	–	SITH-1 expression in U373 cells (HHV-6 HST strain): restricted
